From patent publication US8937167B2 (Washington University, priority 2009, dated 2015)
Where two headings read alike, the source gives them in different places.

Key:
[1] = target: FimH (Escherichia coli, UniProt Q1R2J4); conditions: for HAI Titer EC>50: Table 21;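 for all read-outs here: hemagglutination inhibition of guinea pig erythrocytes agglutinated by type 1 piliated uropathogenic E. coli via FimH mannose binding, quantified through serial dilutions of compound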
Method: In some embodiments, activity of the compound is measured using hemmagglutination titer of guinea pig red blood cells. Hemagglutination of guinea pig red blood cells by type1 piliated UPEC is dependent upon FimH mannose binding ability and serial dilutions allow a quantitative analysis.
Biological activity against FimH was evaluated using a guinea pig red blood cell-based hemagglutination (HA) assay (ref) in which the concentration of the mannoside on reducing agglutination by 50% was used as the primary endpoint (50% HA titer).
Hemagglutination of guinea pig red blood cells by type1 piliated UPEC is dependent upon FimH mannose binding ability. Serial dilutions allow a quantitative analysis using this assay.
Hemagglutination assays for mannose-sensitive agglutination of guinea pig red blood cells were performed as previously described.

[2] = tested on: UTI89 biofilm; test: UTI89 type 1 dependent biofilm formation (inhibition/prevention) assay on PVC, crystal violet; assay type: cell-based, uropathogenic E. coli UTI89; conditions: Escherichia coli
Method: In yet other embodiments, activity of the compound may be measured using the ability of the compound to prevent or disrupt biofilm formation.
UTI89 biofilm was grown in LB+/− mannoside for 24 h at 22° C. in PVC plates and quantitated using crystal violet. UTI89 biofilm for confocal microscopy was grown in LB for 24 h at 22° C. on PVC coverslips. Mannoside was then added and biofilm was grown for an additional 16 h. Coverslips were then washed in PBS, fixed in 2% paraformaldehyde and stained with SYTO9 prior to confocal microscopy. For all animal experiments UTI89 or PBC-1 was grown 2×24 h statically in LB at 37° C. and inoculated at a dose of 1×10^7 bacteria in 50 μl. All mice used were female C3H/HeN (Jackson). For the pretreatment studies, bacteria were incubated with mannoside for 20 min prior to inoculation into the mouse. […] For CFU counts, bladders were harvested at 6 hpi and placed in 1 mL PBS. Bladders were then homogenized, diluted and plated on LB. After growth at 37° C. overnight, bacterial counts were determined. LacZ staining and gentamicin protection assays were performed at 6 hpi. […] Water was changed daily with fresh antibiotics. Standard growth curve assays and hemagglutination assays were performed with TMP-SMZ. All statistical analysis performed was a two-tailed Mann-Whitney U test.
(§1) Biofilm assay. UTI89 was grown in LB broth in wells of PVC microtiter plates at 23° C. in the presence of individual mannosides at varying concentrations. After 48 h of growth, wells were rinsed with water and stained with crystal violet for quantification as described. For biofilm disruption activity in PVC plates, UTI89 was grown in LB broth in wells of PVC microtiter plates at 23° C. After 24 h of growth, mannoside was added and biofilms were grown for an additional 16 h. Wells were then rinsed, stained with crystal violet and quantified. For biofilm disruption activity on PVC coverslips, UTI89 was grown in LB broth in 50 mL conicals containing PBC coverslips at 23° C. After 24 h of growth, 0.3 μM ZFH-2056 was added and biofilm was grown for an additional 16 h.
UTI89 biofilm was grown in LB+/− mannoside for 24 h at 22° C. in PVC plates and quantified using crystal violet. UTI89 biofilm for confocal microscopy was grown in LB for 24 h at 22° C. on PVC coverslips followed by mannoside treatment for 16 h. For all animal experiments UTI89 or PBC-1 was grown 2×24 h statically in LB at 37° C. and inoculated at a dose of 1×10^7 bacteria in 50 μl. All mice used were female C3H/HeN (Harlan). For the chronic UTI model, mice were infected for 2 weeks prior to treatment with mannoside. […] For oral dosing, 100 μl of 10 mg/ml (50 mg/kg) or 20 mg/ml (100 mg/kg) mannoside in 8% DMSO was inoculated with a gavage needle 30 min prior to inoculation of bacteria. […] For CFU counts, bladders were harvested at 6 hpi and placed in 1 mL PBS. Bladders were then homogenized, diluted and plated on LB. After growth at 37° C. overnight, bacterial counts were determined. LacZ staining and gentamicin protection assays were performed at 6 hpi. […] Water was changed daily with fresh antibiotics. Standard growth curve and hemagglutination assays were performed. All statistical analysis performed was a two-tailed Mann-Whitney U test. […] Compounds 7-10 were prepared using slightly modified procedures. All compounds are >95% pure as determined by HPLC/MS and ^1H NMR.
as §1, with “UTI89” for “Biofilm assay. UTI89”, “For biofilm disruption activity on PVC coverslips, UTI89 was grown in LB broth in 50 mL conicals containing PBC coverslips at 23° C. After 24 h of growth, 0.3 μM ZFH-2056 was added and biofilm was grown for an additional 16 h.” left out

| Structure (SMILES) | HAI Titer EC>90 [1] [µM] | also measured |
| --- | --- | --- |
| COC(=O)c1cccc(-c2ccc(OC3O[C@@H](CO)[C@@H](O)[C@H](O)[C@H]3O)c(C)c2)c1 (stereo partly drawn) [Compound 4ZFH224, methyl 3-[3-methyl-4-[(3R,4S,5S,6S)-3,4,5-trihydroxy-6-(hydroxymethyl)tetrahydropyran-2-yl]oxy-phenyl]benzoate] | 0.125 | HAI Titer EC>50 ([1]; ZFH/JWJ codes): 0.125 µM; HAI Titer EC>90 ([1]; Table 22, ZFH/JWJ codes): 0.125 µM; IC50 ([2]; read-out: Biofilm Prevention IC50): 0.333 µM |
| Cc1cc(=O)oc2cc(OC3OC(CO)C(O)C(O)C3O)ccc12 [4-methylumbellferyl-α-D-mannoside, reference compound] |  | IC50 ([2]; read-out: Biofilm IC50 [calculated]): 1.7 µM |
| COC(=O)Cc1ccc(OC2OC(CO)C(O)C(O)C2O)cc1 (stereo not shown) [Compound 1ZFH171, methyl 2-[4-[3,4,5-trihydroxy-6-(hydroxymethyl)tetrahydropyran-2-yl]oxyphenyl]acetate] | 30.000 | IC50 ([2]; read-out: Biofilm IC50 (approximated)): ~100 µM |
| OC[C@@H]1OC(Oc2ccc(-c3ccc4ccncc4c3)cc2)[C@H](O)[C@@H](O)[C@@H]1O (stereo partly drawn) [Compound 4ZFH275, (2S,3S,4S,5R)-2-(hydroxymethyl)-6-[4-(7-isoquinolyl)phenoxy]tetrahydropyran-3,4,5-triol] | 0.750 | HAI Titer EC>50 ([1]; ZFH/JWJ codes): 0.750 µM; HAI Titer EC>90 ([1]; Table 22, ZFH/JWJ codes): 0.750 µM |
| O=C(Nc1ccncc1)c1cccc(-c2ccc(OC3OC(CO)C(O)C(O)C3O)cc2)c1 (stereo not shown) [Compound 3ZFH256, N-(4-pyridyl)-3-[4-[3,4,5-trihydroxy-6-(hydroxymethyl)tetrahydropyran-2-yl]oxyphenyl]benzamide] | 0.25 |  |
| N#Cc1ccc(-c2ccc(OC3OC(CO)C(O)C(O)C3O)cc2)cc1 (stereo not shown) [Compound 3ZFH70, 4-[4-[3,4,5-trihydroxy-6-(hydroxymethyl)tetrahydropyran-2-yl]oxyphenyl]benzonitrile] | 8.000 |  |
| O=C(NCCO)c1cccc(-c2ccc(O[C@H]3O[C@H](CO)[C@@H](O)[C@H](O)[C@@H]3O)cc2)c1 [Compound 10a, N-(2-Hydroxyethyl)-3-[4-[(2R,3S,4S,5S,6R)-3,4,5-trihydroxy-6-(hydroxymethyl)tetrahydropyran-2-yl]oxyphenyl]benzamide] |  | HAI Titer EC>90 ([1]; Table 18, Examples 30-36 numbering): 0.50 µM |
| CNC(=O)c1cccc(-c2ccc(CC3OC(CO)C(O)C(O)C3O)cc2)c1 (stereo not shown) [Compound 5ZFH49] |  | HAI Titer EC>50 ([1]; ZFH/JWJ codes): 1.000 µM |
| OCc1ccc(-c2ccc(OC3OC(CO)C(O)C(O)C3O)cc2)cc1 (stereo not shown) [Compound 14i] |  | EC90 ([1]; read-out: HA 50% titer EC90, Table 12, Example 6 numbering): 6 µM |
| COC(=O)c1cccc(-c2ccc(OC3OC(CO)C(O)C(O)C3O)cc2C(=O)OC)c1 (stereo not shown) [Compound 2ZFH244, methyl 2-(3-methoxycarbonyl-phenyl)-5-[3,4,5-trihydroxy-6-(hydroxymethyl)tetrahydropyran-2-yl]oxy-benzoate] | 1.000 |  |
| O=c1[nH]ccc2ccc(-c3ccc(OC4OC(CO)C(O)C(O)C4O)cc3)cc12 (stereo not shown) [Compound 5ZFH63] |  | HAI Titer EC>50 ([1]; ZFH/JWJ codes): 0.100 µM |
| Cc1ccc(OC2OC(CO)C(O)C(O)C2O)cc1 (stereo not shown) [Compound 2ZFH175, 2-(hydroxymethyl)-6-(4-methylphenoxy)tetrahydropyran-3,4,5-triol] | 8.000 |  |
| CNC(=O)c1cccc(-c2ccc([C@@H](O)C3OC(CO)C(O)C(O)C3O)cc2)c1 (stereo partly shown) [Compound 5ZFH38] |  | HAI Titer EC>50 ([1]; ZFH/JWJ codes): 0.250 µM |
| COC(=O)c1cc(-c2ccc(OC3OC(CO)C(O)C(O)C3O)cc2)ccn1 [Compound 3ZFH220, methyl 4-[4-(a-D-mannopyranosyloxy)phenyl]pyridine-2-carboxylate] | 0.500 |  |
| COC(=O)c1cccc(-c2ccc(O[C@H]3O[C@H](CO)[C@@H](O)[C@H](O)[C@@H]3O)c(F)c2)c1 [Compound 4a, Methyl 3-[3-fluoro-4-[(2R,3S,4S,5S,6R)-3,4,5-trihydroxy-6-(hydroxymethyl)tetrahydropyran-2-yl]oxy-phenyl]benzoate] |  | HAI Titer EC>90 ([1]; Table 17, Examples 30-36 numbering): 0.75 µM |
| CS(=O)(=O)Nc1ccccc1-c1ccc(OC2OC(CO)C(O)C(O)C2O)cc1 (stereo not shown) [Compound 3ZFH163, N-[2-[4-[3,4,5-trihydroxy-6-(hydroxymethyl)tetrahydropyran-2-yl]oxyphenyl]phenyl]methanesulfonamide] | 12.000 |  |
| O=C(NCCO)c1cccc(-c2ccc(OC3OC(CO)C(O)C(O)C3O)cc2)c1 (stereo not shown) [Compound 3ZFH276, N-(2-hydroxyethyl)-3-[4-[3,4,5-trihydroxy-6-(hydroxymethyl)tetrahydropyran-2-yl]oxyphenyl]benzamide] | 0.5000 |  |
| CNC(=O)c1cncc(-c2ccc(OC3OC(CO)C(O)C(O)C3O)cc2)c1 (stereo not shown) | 0.500 |  |
| COC(=O)c1sc(-c2ccc(OC3OC(CO)C(O)C(O)C3O)cc2)cc1NC(N)=O (stereo not shown) [Compound 4ZFH52-JJ, methyl 5-[4-[3,4,5-trihydroxy-6-(hydroxymethyl)tetrahydropyran-2-yl]oxyphenyl]-3-ureido-thiophene-2-carboxylate] | 0.016 |  |
| N#Cc1cccc(-c2ccc(OC3OC(CO)C(O)C(O)C3O)cc2)c1 (stereo not shown) [Compound 3ZFH68, 3-[4-[3,4,5-trihydroxy-6-(hydroxymethyl)tetrahydropyran-2-yl]oxyphenyl]benzonitrile] | 1.000 |  |
| COC(=O)c1cc(-c2ccc(OC3OC(CO)C(O)C(O)C3O)cc2)ccc1NC(C)=O (stereo not shown) [Compound 4ZFH308] |  | HAI Titer EC>50 ([1]; ZFH/JWJ codes): 0.250 µM |
| NCCNC(=O)c1cccc(-c2ccc(OC3OC(CO)C(O)C(O)C3O)cc2)c1 (stereo not shown) [Compound 3ZFH280, N-(2-aminoethyl)-3-[4-[3,4,5-trihydroxy-6-(hydroxymethyl)tetrahydropyran-2-yl]oxyphenyl]benzamide] | 3.000 |  |
| CN1CCN(C(=O)c2cccc(-c3ccc(OC4OC(CO)C(O)C(O)C4O)cc3)c2)CC1 (stereo not shown) [Compound 3ZFH261, (4-methylpiperazin-1-yl)-[3-[4-[3,4,5-trihydroxy-6-(hydroxymethyl)tetrahydropyran-2-yl]oxyphenyl]phenyl]methanone] | 4.000 |  |
| COC(=O)c1cccc(-c2ccc(OC3OC(CO)C(O)C(O)C3O)c(Cl)c2)c1 (stereo not shown) [Compound 4ZFH49, methyl 3-[3-chloro-4-[3,4,5-trihydroxy-6-(hydroxymethyl)tetrahydropyran-2-yl]oxy-phenyl]benzoate] | 0.032 |  |
| CNC(=O)c1cccc(-c2ccc(OC3OC(CO)C(O)C(O)C3O)cc2C(=O)NC)c1 (stereo not shown) [Compound 2ZFH266, N-methyl-2-[3-(methylcarbamoyl)phenyl]-5-[3,4,5-trihydroxy-6-(hydroxymethyl)tetrahydropyran-2-yl]oxy-benzamide] | 12.000 |  |
| CNS(=O)(=O)c1cccc(-c2ccc(OC3OC(CO)C(O)C(O)C3O)cc2)c1 (stereo not shown) [Compound 3ZFH179, N-methyl-3-[4-[3,4,5-trihydroxy-6-(hydroxymethyl)tetrahydropyran-2-yl]oxyphenyl]benzenesulfonamide] | 1.000 |  |
| OCC1OC(Oc2cc(C(F)(F)F)cc(C(F)(F)F)c2)C(O)C(O)C1O (stereo not shown) [Compound 1ZFH274, 2-[3,5-bis(trifluoromethyl)phenoxy]-6-(hydroxymethyl)tetrahydropyran-3,4,5-triol] | 32.000 |  |
| O=[N+]([O-])c1ccc(-c2ccc(OC3OC(CO)C(O)C(O)C3O)cc2)cc1 (stereo not shown) [Compound 3ZFH72, 2-(hydroxymethyl)-6-[4-(4-nitrophenyl)phenoxy]tetrahydropyran-3,4,5-triol] | 2.000 |  |
